The results in this text go back to ChEMBL document CHEMBL1143232, “Antiviral activities against herpes simplex virus type 1 by HPH derivatives and their structure-activity relationships” (Bioorg Med Chem Lett, 2008).

Each structure is given as a SMILES string. Some results are limits rather than exact numbers.

One data set concerns Human alphaherpesvirus 1. The data set is described as follows: Antiviral activity against HSV1 KOS in african green monkey Vero cells by plaque reduction assay. Type of data set: functional, organism-based. The following applies: Human alphaherpesvirus 1, KOS.
Data set [1] in a line: Partition coefficient, log P of the compound. Type of data set: physicochemical. To be noted: octanol/water.
Data set [2] in a line: Cytotoxicity against african green monkey Vero cells after 69 hrs by Alamar blue assay. Type of data set: cell-based. The following applies: chlorocebus sabaeus. For orientation: The colour change of resazurin is a common sign of viable cells or microbes.
A short description of data set [3]: Ratio of CC50 for african green monkey Vero cells to EC50 for HSV1 KOS. Type of data set: functional.

As for `CC(C)(C)SCCNC(=S)c1cccc(C(=S)NCCSC(C)(C)C)n1`, in the data set with Human alphaherpesvirus 1, the EC50 (commonly the concentration giving half of the maximal effect) came out at 15 µM. Further, the logP (usually a log measure of how a compound divides between an organic and an aqueous phase) in data set [1] amounted to 4.4. Further, the CC50 – broadly, the concentration giving 50% cytotoxicity – at 69 h in data set [2] came out at 37 µM. The “Ratio CC50/EC50” value in data set [3] was 2.5.

As to `O=C(CCNC(=O)c1cc(-c2cccc3ccccc23)cc(C(=O)NCCC(=O)NO)n1)NO`, the 50% effective concentration (EC50) in the data set on Human alphaherpesvirus 1 is over 100 µM. Besides, in data set [2], the cytotoxic concentration (CC50) at 69 h was over 100 µM.

As to `O=C(O)CCNC(=O)c1cc(-c2cccc3ccccc23)cc(C(=O)NCCC(=O)O)n1`, the EC50 with Human alphaherpesvirus 1 was over 100 µM. The CC50 at 69 h in data set [2] is over 100 µM.

`O=C(CCNC(=O)c1cccc(C(=O)NCCC(=O)NO)n1)NO` came in with an EC50 in the data set on Human alphaherpesvirus 1 of over 100 µM. This molecule also showed a CC50 at 69 h in data set [2] of over 100 µM.

On to `CC(C)(C)SCCNC(=O)c1cccc(C(=O)NCCSC(C)(C)C)n1`, for which a half-maximal response in the data set on Human alphaherpesvirus 1 (EC50) required 79 µM. The same molecule showed a logP in data set [1] of 2.7. In data set [2], this molecule registered a CC50 at 69 h of 500 µM. The “Ratio CC50/EC50” value in data set [3] came out at 6.3.

Molecule `Nc1nc2c(ncn2COCCO)c(=O)[nH]1` [ACYCLOVIR] yielded an EC50 in the data set on Human alphaherpesvirus 1 of 6 µM. The same molecule gave a CC50 at 69 h in data set [2] of over 100 µM.

The molecule `COC(=O)C(Cc1c[nH]cn1)NCc1cc(N(C)C)cc(C(=O)NC(Cc2c[nH]cn2)C(=O)OC)n1` (configuration not stated) registered an EC50 in the data set on Human alphaherpesvirus 1 of over 100 µM. The CC50 at 69 h in data set [2] was over 100 µM.

With `CSCCNC(=O)c1cccc(C(=O)NCCSC)n1`, the EC50 with Human alphaherpesvirus 1 was over 100 µM. In data set [2], this molecule came in with a CC50 at 69 h of over 100 µM.

In the data set with Human alphaherpesvirus 1, `O=C(O)CCNC(=O)c1cccc(C(=O)NCCC(=O)O)n1` showed an EC50 of over 100 µM. In addition, the CC50 at 69 h in data set [2] was over 100 µM.
